Consider 22 molecules from US20240400555A1 (Initial Therapeutics, Inc., priority 2023, published 2024).

A word on the IC50: it is the concentration at which inhibition is half-maximal.

Molecules are shown by their SMILES.

The test system of the assay is MV-4-11 cells. As to the kind of experiment: Cell Viability Assay in MV-4-11 Cells. The conditions noted are these: Homo sapiens, MV4-11, 72 h, MV-4-11 cells, 72 h, Cell-Titer Glo; read-out: IC50. The assay is classed as cell-based. An outline of the steps: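 MV-4-11 cells at 7,000/well in IMDM with 10% FBS, exposed to compound for 72 h. Viability by CellTiter-Glo luminescence, normalized to DMSO as 100%, fitted with a four-parameter curve.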
With `Cc1cccc2ccnc(N(C(=O)c3ccc(Nc4nccc(N5CCC(C)(O)CC5)n4)cc3F)[C@@H]3CCCNC3)c12` [Example 936, (R)-2-fluoro-4-(4-(4-hydroxy-4-methylpiperidin-1-yl)pyrimidin-2-ylamino)-N-(8-methylisoquinolin-1-yl)-N-(piperidin-3-yl)benzamide], the IC50 stood at 24 nM.
Next, `Cc1cc(F)cc2ccnc(N(C(=O)c3ccc(-c4cnn5cccnc45)cc3F)[C@@H]3CCCNC3)c12` [Example 627, (R)-2-fluoro-N-(6-fluoro-8-methylisoquinolin-1-yl)-N-(piperidin-3-yl)-4-(pyrazolo[1,5-a]pyrimidin-3-yl)benzamide]: 160 nM; `Cc1cccc2ccnc(N(C(=O)c3ccc(Nc4nccc(C5CCOCC5)n4)cc3F)[C@@H]3CCCNC3)c12` [Example 663, (R)-2-fluoro-N-(8-methylisoquinolin-1-yl)-N-(piperidin-3-yl)-4-((4-(tetrahydro-2H-pyran-4-yl)pyrimidin-2-yl)amino)benzamide]: 110 nM.
Next, `Cc1nnc(-c2ccc(C(=O)N(c3nccc4scc(C)c34)[C@@H]3CCCNC3)c(C)c2)s1` [Example 757, 2-methyl-4-(5-methyl-1,3,4-thiadiazol-2-yl)-N-(3-methylthieno[3,2-c]pyridin-4-yl)-N-[(3R)-3-piperidyl]benzamide]: 530 nM; `Cc1c(-c2ccc(C(=O)N(c3nccc4sc(-c5ccc(C(N)=O)cc5)cc34)[C@@H]3CCCNC3)c(F)c2)cnn1C` [Example 612, (R)—N-(2-(4-carbamoylphenyl)thieno[3,2-c]pyridin-4-yl)-4-(1,5-dimethyl-1H-pyrazol-4-yl)-2-fluoro-N-(piperidin-3-yl)benzamide]: 280 nM; `Cc1cn(-c2ccc(C(=O)N(c3nccc4scc(C)c34)[C@@H]3CCCNC3)cc2)nn1` [Example 689, (R)-4-(4-methyl-1H-1,2,3-triazol-1-yl)-N-(3-methylthieno[3,2-c]pyridin-4-yl)-N-(piperidin-3-yl)benzamide]: 120 nM.
`Cn1cc(-c2ccc(C(=O)N(c3nccc4cc(/C=C/C(N)=O)ccc34)[C@@H]3CCCNC3)c(F)c2)nn1` [Example 496, (R,E)-N-(6-(3-amino-3-oxoprop-1-en-1-yl)isoquinolin-1-yl)-2-fluoro-4-(1-methyl-1H-1,2,3-triazol-4-yl)-N-(piperidin-3-yl)benzamide]: the 50% inhibitory concentration (IC50) came out at 5400 nM.
Regarding `Cc1cccc2ccnc(N(C(=O)N3CCCC(CCC(=O)Nc4ccc5[nH]ncc5c4)C3)[C@@H]3CCCNC3)c12` (stereo partly drawn) [Example 498, 3-(3-((1H-indazol-5-yl)amino)-3-oxopropyl)-N-(8-methylisoquinolin-1-yl)-N—((R)-piperidin-3-yl)piperidine-1-carboxamide], the IC50 was found to be 2000 nM.
Then `Cc1cc(-c2ccc(C(=O)N(c3nccc4scc(C)c34)[C@@H]3CCCNC3)nc2)on1` [Example 797, (R)-5-(3-methylisoxazol-5-yl)-N-(3-methylthieno[3,2-c]pyridin-4-yl)-N-(piperidin-3-yl)picolinamide], with 170 nM.
Then `Cc1nnc(-c2ccc(C(=O)N(c3nccc4cc(F)cc(C)c34)[C@@H]3CCCNC3)cn2)o1` [Example 918, N-(6-fluoro-8-methyl-1-isoquinolyl)-6-(5-methyl-1,3,4-oxadiazol-2-yl)-N-[(3R)-3-piperidyl]pyridine-3-carboxamide], with 170 nM; and `C#Cc1csc2ccnc(N(C(=O)c3ccc(-c4nnc(C)s4)cc3F)[C@@H]3CCCNC3)c12` [Example 652, N-(3-ethynylthieno[3,2-c]pyridine-4-yl)-2-fluoro-4-(5-methyl-1,3,4-thiadiazol-2-yl)-N-[(3R)-3-piperidyl] benzamide], with 180 nM; and `Cc1cccc2ccnc(N(C(=O)c3ccc(C#N)c(-c4ccc(-c5cccnc5)cc4)c3)[C@@H]3CCCNC3)c12` [Example 328, 4-cyano-N-(8-methyl-1-isoquinolyl)-N-[(3R)-3-piperidyl]-3-[4-(3-pyridyl)phenyl]benzamide], with 210 nM.
Then `Cn1cc(-c2ccc(C(=O)N(c3nccc4sc(-c5ccccn5)cc34)[C@@H]3CCCNC3)c(F)c2)nn1` [Example 507, 2-fluoro-4-(1-methyltriazol-4-yl)-N-[(3R)-3-piperidyl]-N-[2-(2-pyridyl)thieno [3,2-c]pyridin-4-yl] benzamide], with 610 nM; and `COCc1nnc(-c2ccc(C(=O)N(c3nccc4cc(C)cc(C)c34)[C@@H]3CCCNC3)cn2)s1` [Example 896, N-(6,8-dimethyl-1-isoquinolyl)-6-[5-(methoxymethyl)-1,3,4-thiadiazol-2-yl]-N-[(3R)-3-piperidyl] pyridine-3-carboxamide], with 46 nM.
Turning to `CCOCc1nnc(-c2ccc(C(=O)N(c3nccc4cc(F)cc(C)c34)[C@@H]3CCCNC3)c(F)c2)s1` [Example 854, 4-[5-(ethoxymethyl)-1,3,4-thiadiazol-2-yl]-2-fluoro-N-(6-fluoro-8-methyl-1-isoquinolyl)-N-[(3R)-3-piperidyl]benzamide], the IC50 is 80 nM.
Next, `Cn1cc(-c2ccc(C(=O)N(c3nccc4sc(-c5cccc(C(=O)NCCO)c5)cc34)[C@@H]3CCCNC3)c(F)c2)nn1` [Example 542, 2-fluoro-N-[2-[3-(2-hydroxyethylcarbamoyl)phenyl]thieno[3,2-c]pyridin-4-yl]-4-(1-methyltriazol-4-yl)-N-[(3R)-3-piperidyl]benzamide]: 6300 nM; `C#Cc1ccc2c(N(C(=O)c3ccc(-n4nnc5cccnc54)cc3F)[C@@H]3CCCNC3)nccc2c1` [Example 396, (R)-4-(3H-[1,2,3]triazolo[4,5-b]pyridin-3-yl)-N-(6-ethynylisoquinolin-1-yl)-2-fluoro-N-(piperidin-3-yl)benzamide]: 150 nM.
Then `Cn1cc(-c2ccc(C(=O)N(c3nccc4sc(C(=O)c5cccnc5)cc34)[C@@H]3CCCNC3)c(F)c2)nn1` [Example 563], with 340 nM; and `O=C(c1ccc(-n2nnc3cccnc32)cc1F)N(c1nccc2sc(-c3ccccn3)cc12)[C@@H]1CCCNC1` [Example 365, 2-fluoro-N-[(3R)-3-piperidyl]-N-[2-(2-pyridyl)thieno[3,2-c]pyridin-4-yl]-4-(triazolo[4,5-b]pyridin-3-yl)benzamide], with 480 nM; and `Cn1cc(-c2ccc(C(=O)N(c3nccc4cc(-c5nnn[nH]5)ccc34)[C@@H]3CCCNC3)c(F)c2)nn1` [Example 405, (R)—N-(6-(1H-tetrazol-5-yl)isoquinolin-1-yl)-2-fluoro-4-(1-methyl-1H-1,2,3-triazol-4-yl)-N-(piperidin-3-yl)benzamide], with 7800 nM.
Consider `Cn1cc(-c2ccc(C(=O)N(c3nccc4sc(-c5ccccc5)cc34)[C@@H]3CCCNC3)c(F)c2)nn1` [Example 510, 2-fluoro-4-(1-methyltriazol-4-yl)-N-(2-phenylthieno[3,2-c]pyridin-4-yl)-N-[(3R)-3-piperidyl]benzamide], for which the IC50 turned out to be 260 nM.
Next, `Nc1c(F)cc(-c2cc3c(N(C(=O)c4ccc(-n5nnc6cccnc65)cc4F)[C@@H]4CCCNC4)nccc3s2)cc1F` [Example 565, N-[2-(4-amino-3,5-difluoro-phenyl)thieno[3,2-c]pyridin-4-yl]-2-fluoro-N-[(3R)-3-piperidyl]-4-(triazolo[4,5-b]pyridin-3-yl)benzamide]: 230 nM.
